Data reported in publication PMC4979471 (Cell Death Discovery, 2015).
Like-named read-outs stand apart in the source and are kept apart here.

Legend:
Assay in all cases: Kinase selectivity, P33-radiolabeled assay
Type in all cases: biochemical
Conditions in all cases: 10 μM ATP
GSK3a = target: T1, GSK3a (Homo sapiens, UniProt P49840)
T1 construct: purchased Reaction Biology Corp
In short: (§1)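 Each enzyme was exposed to 10 μM compound, with duplicate measurements, in reactions containing 10 μM ATP. Numbers are remaining activity as a percent of the vehicle (DMSO) signal.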

MAPKAPK2 = target: T2, MAPKAPK2 (Homo sapiens, UniProt P49137)
T2 construct: purchased Reaction Biology Corp
In short: as §1

CDK2/Cyclin A1 = target: T3, CDK2/Cyclin A1 (Homo sapiens, UniProt P24941)
T3 construct: purchased Reaction Biology Corp
In short: as §1

PIM3 = target: T4, PIM3 (Homo sapiens, UniProt Q86V86)
T4 construct: purchased Reaction Biology Corp
In short: as §1

HCK = target: T5, HCK (Homo sapiens, UniProt P08631)
T5 construct: purchased Reaction Biology Corp
In short: as §1

TXK = target: T6, TXK (Homo sapiens, UniProt P42681)
T6 construct: purchased Reaction Biology Corp
T6 sequence (P42681 1-527): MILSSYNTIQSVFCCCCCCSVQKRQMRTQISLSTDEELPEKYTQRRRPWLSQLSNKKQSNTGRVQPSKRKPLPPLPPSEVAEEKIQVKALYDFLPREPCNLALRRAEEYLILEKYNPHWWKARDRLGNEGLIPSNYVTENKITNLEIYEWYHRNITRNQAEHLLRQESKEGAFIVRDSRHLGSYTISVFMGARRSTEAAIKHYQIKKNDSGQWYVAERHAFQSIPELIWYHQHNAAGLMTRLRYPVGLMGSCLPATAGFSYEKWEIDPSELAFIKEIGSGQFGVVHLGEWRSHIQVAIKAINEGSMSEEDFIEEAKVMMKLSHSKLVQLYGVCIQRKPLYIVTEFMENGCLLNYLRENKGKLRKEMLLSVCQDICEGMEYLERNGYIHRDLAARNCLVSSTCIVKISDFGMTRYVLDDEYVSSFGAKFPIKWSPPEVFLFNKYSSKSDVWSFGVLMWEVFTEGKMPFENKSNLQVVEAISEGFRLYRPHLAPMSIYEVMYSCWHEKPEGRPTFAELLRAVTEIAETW
In short: as §1

MST4 = target: T7, MST4 (Homo sapiens, UniProt Q9P289)
T7 construct: purchased Reaction Biology Corp
In short: as §1

Aurora C = target: T8, Aurora C (Homo sapiens, UniProt Q9UQB9)
T8 construct: purchased Reaction Biology Corp
T8 sequence (Q9UQB9 1-309): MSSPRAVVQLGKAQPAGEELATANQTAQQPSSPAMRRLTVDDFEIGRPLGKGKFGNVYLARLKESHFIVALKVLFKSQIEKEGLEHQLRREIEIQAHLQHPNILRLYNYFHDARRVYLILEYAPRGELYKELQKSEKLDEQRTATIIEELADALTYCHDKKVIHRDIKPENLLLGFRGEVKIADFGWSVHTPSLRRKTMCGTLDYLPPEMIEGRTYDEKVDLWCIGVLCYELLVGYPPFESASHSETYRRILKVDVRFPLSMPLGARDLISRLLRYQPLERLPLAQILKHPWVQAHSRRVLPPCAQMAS
In short: as §1

ERBB4/HER4 = target: T9, ERBB4/HER4 (Homo sapiens, UniProt Q15303)
T9 construct: purchased Reaction Biology Corp
In short: as §1

RSK2 = target: T10, RSK2 (Homo sapiens, UniProt P51812)
T10 construct: purchased Reaction Biology Corp
In short: as §1

MINK/MINK1 = target: T11, MINK/MINK1 (Homo sapiens, UniProt Q8N4C8)
T11 construct: purchased Reaction Biology Corp
In short: as §1

EPHA5 = target: T12, EPHA5 (Homo sapiens, UniProt P54756)
T12 construct: purchased Reaction Biology Corp
In short: as §1

CAMK2d = target: T13, CAMK2d (Homo sapiens, UniProt Q13557)
T13 construct: purchased Reaction Biology Corp
In short: as §1

GRK4 = target: T14, GRK4 (Homo sapiens, UniProt P32298)
T14 construct: purchased Reaction Biology Corp
In short: as §1

LYN = target: T15, LYN (Homo sapiens, UniProt P07948)
T15 construct: purchased Reaction Biology Corp
In short: as §1

[1] = read-out: % Enzyme Activity (relative to DMSO controls) AVG
[2] = read-out: % Enzyme Activity (relative to DMSO controls) Data 1
[3] = read-out: % Enzyme Activity (relative to DMSO controls) Data 2

T15 sequence (P07948 whole entry): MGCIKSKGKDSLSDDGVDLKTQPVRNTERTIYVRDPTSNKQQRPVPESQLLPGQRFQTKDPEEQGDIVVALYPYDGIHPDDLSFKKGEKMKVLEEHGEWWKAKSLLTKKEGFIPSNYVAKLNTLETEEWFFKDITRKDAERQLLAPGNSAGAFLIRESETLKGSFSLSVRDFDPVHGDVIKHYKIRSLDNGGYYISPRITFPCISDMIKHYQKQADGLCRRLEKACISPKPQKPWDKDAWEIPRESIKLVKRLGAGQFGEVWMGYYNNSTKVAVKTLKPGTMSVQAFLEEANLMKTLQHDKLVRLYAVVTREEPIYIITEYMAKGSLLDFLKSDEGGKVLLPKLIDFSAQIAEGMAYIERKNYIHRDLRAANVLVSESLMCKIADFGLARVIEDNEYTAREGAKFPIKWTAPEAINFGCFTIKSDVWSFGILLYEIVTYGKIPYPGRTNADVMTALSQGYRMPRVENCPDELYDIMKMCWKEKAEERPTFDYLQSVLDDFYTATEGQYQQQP
T11 sequence (Q8N4C8 whole entry): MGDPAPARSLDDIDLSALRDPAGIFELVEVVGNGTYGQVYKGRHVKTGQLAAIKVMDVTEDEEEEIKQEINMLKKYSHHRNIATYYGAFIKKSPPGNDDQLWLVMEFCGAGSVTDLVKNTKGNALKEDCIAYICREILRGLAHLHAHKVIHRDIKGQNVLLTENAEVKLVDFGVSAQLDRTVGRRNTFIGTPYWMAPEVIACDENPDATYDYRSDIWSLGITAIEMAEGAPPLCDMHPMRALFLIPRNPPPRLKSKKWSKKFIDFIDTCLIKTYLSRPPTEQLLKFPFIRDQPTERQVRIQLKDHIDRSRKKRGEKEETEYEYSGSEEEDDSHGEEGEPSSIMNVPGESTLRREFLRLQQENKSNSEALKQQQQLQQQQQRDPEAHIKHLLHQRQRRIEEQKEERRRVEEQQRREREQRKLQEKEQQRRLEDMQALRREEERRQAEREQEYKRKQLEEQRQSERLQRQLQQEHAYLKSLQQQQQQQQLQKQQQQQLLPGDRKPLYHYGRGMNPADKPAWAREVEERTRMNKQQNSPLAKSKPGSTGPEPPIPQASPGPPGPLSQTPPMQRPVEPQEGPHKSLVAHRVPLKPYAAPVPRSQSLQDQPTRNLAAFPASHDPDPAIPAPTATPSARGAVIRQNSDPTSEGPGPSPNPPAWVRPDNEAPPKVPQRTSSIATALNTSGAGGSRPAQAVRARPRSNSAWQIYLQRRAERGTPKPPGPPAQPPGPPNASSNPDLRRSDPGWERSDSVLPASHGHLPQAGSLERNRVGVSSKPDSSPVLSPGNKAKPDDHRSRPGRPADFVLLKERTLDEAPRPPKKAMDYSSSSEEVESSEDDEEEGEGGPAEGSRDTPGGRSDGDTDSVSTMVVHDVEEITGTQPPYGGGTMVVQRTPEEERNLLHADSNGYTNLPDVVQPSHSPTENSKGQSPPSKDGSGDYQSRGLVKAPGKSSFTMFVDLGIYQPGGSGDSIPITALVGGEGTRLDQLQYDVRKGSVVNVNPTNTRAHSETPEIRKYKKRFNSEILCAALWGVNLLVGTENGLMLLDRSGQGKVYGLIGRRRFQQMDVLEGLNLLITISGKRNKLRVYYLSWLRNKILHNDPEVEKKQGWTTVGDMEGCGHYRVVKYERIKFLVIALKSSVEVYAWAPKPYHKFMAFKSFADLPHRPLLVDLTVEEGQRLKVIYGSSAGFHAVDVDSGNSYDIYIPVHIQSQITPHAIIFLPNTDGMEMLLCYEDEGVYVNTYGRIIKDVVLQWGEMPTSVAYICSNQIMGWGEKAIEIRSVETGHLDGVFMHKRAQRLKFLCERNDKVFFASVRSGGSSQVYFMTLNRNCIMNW
T7 sequence (Q9P289 whole entry): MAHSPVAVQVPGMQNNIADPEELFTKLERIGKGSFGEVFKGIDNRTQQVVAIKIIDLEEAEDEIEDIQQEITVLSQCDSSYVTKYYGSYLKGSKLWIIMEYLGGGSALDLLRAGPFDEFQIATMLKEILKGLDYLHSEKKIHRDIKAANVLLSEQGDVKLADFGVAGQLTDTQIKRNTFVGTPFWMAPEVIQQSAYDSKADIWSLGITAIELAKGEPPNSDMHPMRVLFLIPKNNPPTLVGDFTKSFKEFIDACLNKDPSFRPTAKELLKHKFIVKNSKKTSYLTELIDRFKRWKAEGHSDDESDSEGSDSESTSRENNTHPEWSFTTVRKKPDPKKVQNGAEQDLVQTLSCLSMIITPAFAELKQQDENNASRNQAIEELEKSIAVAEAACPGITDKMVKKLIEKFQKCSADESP
T10 sequence (P51812 whole entry): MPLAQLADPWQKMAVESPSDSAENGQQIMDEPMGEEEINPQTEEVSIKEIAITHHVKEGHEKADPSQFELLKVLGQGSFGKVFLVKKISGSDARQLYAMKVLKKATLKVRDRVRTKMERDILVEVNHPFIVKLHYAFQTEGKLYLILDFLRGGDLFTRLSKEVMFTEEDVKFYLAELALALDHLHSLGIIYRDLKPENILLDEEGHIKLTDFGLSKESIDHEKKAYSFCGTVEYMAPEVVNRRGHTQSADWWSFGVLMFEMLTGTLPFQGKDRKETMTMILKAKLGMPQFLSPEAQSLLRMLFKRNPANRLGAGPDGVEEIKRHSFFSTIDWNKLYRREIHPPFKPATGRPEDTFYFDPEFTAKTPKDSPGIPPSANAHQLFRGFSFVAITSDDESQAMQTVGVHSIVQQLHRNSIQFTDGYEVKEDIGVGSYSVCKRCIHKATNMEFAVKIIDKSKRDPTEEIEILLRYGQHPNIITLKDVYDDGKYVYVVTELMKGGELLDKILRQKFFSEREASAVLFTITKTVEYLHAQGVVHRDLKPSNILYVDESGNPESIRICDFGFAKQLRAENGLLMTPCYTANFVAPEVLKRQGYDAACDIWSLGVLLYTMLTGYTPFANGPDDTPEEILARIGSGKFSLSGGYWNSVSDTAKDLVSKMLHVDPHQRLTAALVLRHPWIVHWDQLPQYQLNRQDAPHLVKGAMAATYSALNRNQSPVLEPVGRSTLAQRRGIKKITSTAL
T14 sequence (P32298 whole entry): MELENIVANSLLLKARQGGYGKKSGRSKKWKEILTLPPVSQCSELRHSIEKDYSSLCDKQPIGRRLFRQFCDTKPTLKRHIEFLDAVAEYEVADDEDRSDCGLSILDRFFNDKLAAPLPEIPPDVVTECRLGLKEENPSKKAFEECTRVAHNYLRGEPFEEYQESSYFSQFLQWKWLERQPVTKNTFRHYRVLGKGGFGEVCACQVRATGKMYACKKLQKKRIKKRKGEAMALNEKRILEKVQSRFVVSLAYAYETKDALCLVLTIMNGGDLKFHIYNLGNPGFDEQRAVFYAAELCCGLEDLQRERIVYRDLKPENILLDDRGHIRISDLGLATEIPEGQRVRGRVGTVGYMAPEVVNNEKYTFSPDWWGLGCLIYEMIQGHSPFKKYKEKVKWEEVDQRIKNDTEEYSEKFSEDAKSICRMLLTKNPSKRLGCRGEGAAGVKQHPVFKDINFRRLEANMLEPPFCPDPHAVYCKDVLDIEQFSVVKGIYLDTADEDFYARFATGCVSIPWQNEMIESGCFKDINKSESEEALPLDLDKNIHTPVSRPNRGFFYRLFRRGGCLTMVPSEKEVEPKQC
T1 sequence (P49840 whole entry): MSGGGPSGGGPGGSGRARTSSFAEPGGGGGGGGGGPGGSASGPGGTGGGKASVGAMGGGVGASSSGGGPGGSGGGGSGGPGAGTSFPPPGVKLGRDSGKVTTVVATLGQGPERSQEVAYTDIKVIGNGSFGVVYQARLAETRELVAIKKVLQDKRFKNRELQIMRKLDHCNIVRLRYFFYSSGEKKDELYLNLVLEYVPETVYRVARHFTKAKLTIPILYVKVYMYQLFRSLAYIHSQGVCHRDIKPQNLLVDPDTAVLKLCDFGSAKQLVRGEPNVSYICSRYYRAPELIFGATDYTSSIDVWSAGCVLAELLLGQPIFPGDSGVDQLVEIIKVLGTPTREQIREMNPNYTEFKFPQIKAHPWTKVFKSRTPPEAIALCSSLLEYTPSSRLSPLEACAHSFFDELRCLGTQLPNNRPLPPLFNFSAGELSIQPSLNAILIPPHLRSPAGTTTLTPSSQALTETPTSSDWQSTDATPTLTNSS
T13 sequence (Q13557 whole entry): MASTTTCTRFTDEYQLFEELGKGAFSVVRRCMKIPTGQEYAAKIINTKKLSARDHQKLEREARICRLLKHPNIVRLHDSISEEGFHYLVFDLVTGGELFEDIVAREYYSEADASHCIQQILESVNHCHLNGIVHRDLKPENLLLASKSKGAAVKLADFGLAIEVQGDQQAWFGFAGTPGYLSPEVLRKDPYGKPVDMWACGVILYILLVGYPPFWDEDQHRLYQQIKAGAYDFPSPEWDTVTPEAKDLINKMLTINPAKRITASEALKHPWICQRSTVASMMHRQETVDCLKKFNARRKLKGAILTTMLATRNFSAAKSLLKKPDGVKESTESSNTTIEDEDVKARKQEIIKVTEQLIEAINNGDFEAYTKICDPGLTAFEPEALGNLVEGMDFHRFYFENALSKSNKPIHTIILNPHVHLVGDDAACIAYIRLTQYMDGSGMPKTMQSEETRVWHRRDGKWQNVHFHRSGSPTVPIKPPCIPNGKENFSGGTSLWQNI
T2 sequence (P49137 whole entry): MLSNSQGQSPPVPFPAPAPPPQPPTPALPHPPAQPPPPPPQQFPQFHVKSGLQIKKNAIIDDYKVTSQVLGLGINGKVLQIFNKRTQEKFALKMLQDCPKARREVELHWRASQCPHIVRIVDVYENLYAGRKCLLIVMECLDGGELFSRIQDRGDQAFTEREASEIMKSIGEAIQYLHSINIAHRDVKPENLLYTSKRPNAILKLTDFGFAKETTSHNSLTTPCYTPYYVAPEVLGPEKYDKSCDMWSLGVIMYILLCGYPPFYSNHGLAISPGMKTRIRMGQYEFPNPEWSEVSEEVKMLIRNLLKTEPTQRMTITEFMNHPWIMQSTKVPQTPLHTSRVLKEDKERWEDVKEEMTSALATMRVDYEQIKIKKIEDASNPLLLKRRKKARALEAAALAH

CC(C)(C)C(=O)N1N=CC[C@H]1c1ccccc1 [GSK′963]
remaining activity at 10 µM (GSK3a; [1]): 111% | remaining activity at 10 µM (GSK3a; [2]): 107% | remaining activity at 10 µM (GSK3a; [3]): 114% | remaining activity at 10 µM (MAPKAPK2; [1]): 112% | remaining activity at 10 µM (MAPKAPK2; [2]): 115% | remaining activity at 10 µM (MAPKAPK2; [3]): 109% | remaining activity at 10 µM (CDK2/Cyclin A1; [1]): 107% | remaining activity at 10 µM (CDK2/Cyclin A1; [2]): 107% | remaining activity at 10 µM (CDK2/Cyclin A1; [3]): 107% | remaining activity at 10 µM (PIM3; [1]): 116% | remaining activity at 10 µM (PIM3; [2]): 119% | remaining activity at 10 µM (PIM3; [3]): 113% | remaining activity at 10 µM (HCK; [1]): 96.5% | remaining activity at 10 µM (HCK; [2]): 95.5% | remaining activity at 10 µM (HCK; [3]): 97.6% | remaining activity at 10 µM (TXK; [1]): 96.3% | remaining activity at 10 µM (TXK; [2]): 95.7% | remaining activity at 10 µM (TXK; [3]): 96.8% | remaining activity at 10 µM (MST4; [1]): 104% | remaining activity at 10 µM (MST4; [2]): 103% | remaining activity at 10 µM (MST4; [3]): 105% | remaining activity at 10 µM (Aurora C; [1]): 96.9% | remaining activity at 10 µM (Aurora C; [2]): 98.4% | remaining activity at 10 µM (Aurora C; [3]): 95.5% | remaining activity at 10 µM (ERBB4/HER4; [1]): 102% | remaining activity at 10 µM (ERBB4/HER4; [2]): 101% | remaining activity at 10 µM (ERBB4/HER4; [3]): 104% | remaining activity at 10 µM (RSK2; [1]): 106% | remaining activity at 10 µM (RSK2; [2]): 107% | remaining activity at 10 µM (RSK2; [3]): 106% | remaining activity at 10 µM (MINK/MINK1; [1]): 90.2% | remaining activity at 10 µM (MINK/MINK1; [2]): 89.8% | remaining activity at 10 µM (MINK/MINK1; [3]): 90.6% | remaining activity at 10 µM (EPHA5; [1]): 107% | remaining activity at 10 µM (EPHA5; [2]): 105% | remaining activity at 10 µM (EPHA5; [3]): 108% | remaining activity at 10 µM (CAMK2d; [1]): 108% | remaining activity at 10 µM (CAMK2d; [2]): 109% | remaining activity at 10 µM (CAMK2d; [3]): 108% | remaining activity at 10 µM (GRK4; [1]): 97.9% | remaining activity at 10 µM (GRK4; [2]): 97.9% | remaining activity at 10 µM (GRK4; [3]): 97.8% | remaining activity at 10 µM (LYN; [1]): 107% | remaining activity at 10 µM (LYN; [2]): 109% | remaining activity at 10 µM (LYN; [3]): 105%
